Experimental data as given in the NIST ThermoML archive (doi:10.1021/acs.jced.6b00587).
Numbers after ± are expanded uncertainties.

Details: Liquid, Ebulliometric method (Recirculating still)

## CCCCOCC [butyl ethyl ether]
336.22 K
  vapor or sublimation pressure: 38.6 ± 0.81 kPa
340.35 K
  vapor or sublimation pressure: 44.96 ± 0.82 kPa
344.21 K
  vapor or sublimation pressure: 51.67 ± 0.83 kPa
346.8 K
  vapor or sublimation pressure: 56.24 ± 0.84 kPa
348.84 K
  vapor or sublimation pressure: 60 ± 0.87 kPa
350.44 K
  vapor or sublimation pressure: 63.63 ± 0.9 kPa
354.01 K
  vapor or sublimation pressure: 71.58 ± 0.91 kPa
357.31 K
  vapor or sublimation pressure: 79.6 ± 0.95 kPa
361.44 K
  vapor or sublimation pressure: 90.59 ± 0.97 kPa
363.47 K
  vapor or sublimation pressure: 96.36 ± 0.99 kPa
365.25 K
  vapor or sublimation pressure: 101.3 ± 0.99 kPa

## CCCOCCC [dipropyl ether]
326.73 K
  vapor or sublimation pressure: 29.35 ± 0.78 kPa
332.57 K
  vapor or sublimation pressure: 36.71 ± 0.79 kPa
336.55 K
  vapor or sublimation pressure: 42.54 ± 0.81 kPa
341.15 K
  vapor or sublimation pressure: 49.98 ± 0.83 kPa
345.34 K
  vapor or sublimation pressure: 57.75 ± 0.85 kPa
346.55 K
  vapor or sublimation pressure: 60 ± 1 kPa
346.63 K
  vapor or sublimation pressure: 60 ± 1 kPa
347.55 K
  vapor or sublimation pressure: 62.3 ± 0.94 kPa
352.11 K
  vapor or sublimation pressure: 72.36 ± 0.91 kPa
354.82 K
  vapor or sublimation pressure: 78.97 ± 0.94 kPa
356.85 K
  vapor or sublimation pressure: 84.25 ± 0.96 kPa
358.73 K
  vapor or sublimation pressure: 89.3 ± 0.99 kPa
361.18 K
  vapor or sublimation pressure: 96.32 ± 1 kPa
362.87 K
  vapor or sublimation pressure: 101.3 ± 1 kPa

## CCCCCCC [heptane]
331.39 K
  vapor or sublimation pressure: 26.15 ± 0.77 kPa
335.45 K
  vapor or sublimation pressure: 30.59 ± 0.78 kPa
341.94 K
  vapor or sublimation pressure: 38.89 ± 0.79 kPa
347.16 K
  vapor or sublimation pressure: 46.8 ± 0.81 kPa
349.68 K
  vapor or sublimation pressure: 50.97 ± 0.83 kPa
352.58 K
  vapor or sublimation pressure: 56.2 ± 0.84 kPa
354.63 K
  vapor or sublimation pressure: 60 ± 1 kPa
356.78 K
  vapor or sublimation pressure: 64.6 ± 0.89 kPa
359.38 K
  vapor or sublimation pressure: 70.24 ± 0.9 kPa
362.11 K
  vapor or sublimation pressure: 76.47 ± 0.92 kPa
364.95 K
  vapor or sublimation pressure: 83.45 ± 0.94 kPa
366.87 K
  vapor or sublimation pressure: 88.4 ± 1 kPa
371.28 K
  vapor or sublimation pressure: 101.3 ± 1 kPa
